Data on 34 compounds can be found in paper PMC7403393 (Scientific Reports, 2020).

Counter-ions that a name gives are not always drawn. Like-named read-outs stand apart in the source and are kept apart here.

For data set [1], the system named is SARS-CoV-2. Kind of data set: EC50/EC90 determination by quantification of viral genome (real-time RT-PCR) in VeroE6 cells. Format: cell-based, SARS-CoV-2 strain BavPat1. As to conditions: for activity at 40 µM: VeroE6, 40 µM. (Real-time PCR tracks product formation cycle by cycle.)
Data set [2] relates to SARS-CoV-2. As to conditions: 5 and 10 µM.
Data set [3] can be described thus: in vitro. The following applies: African green monkey.
Data set [4] concerns SARS-CoV-2. The experiment in a line: microbe, parasite or virus in culture. As to conditions: Severe acute respiratory syndrome coronavirus 2, Caco-2, read-out: replication inhibition.
Data set [5] relates to SARS-CoV-2.
The subject of data set [6] is VeroE6 cells. On the set-up: method as in PMID 29642580. As to conditions: cited from earlier work.
The subject of data set [7] is SARS-CoV-2. Kind of data set: microbe, parasite or virus in culture. As to conditions: Severe acute respiratory syndrome coronavirus 2, Vero C1008, read-out: cell viability.
The test system of data set [8] is VeroE6 cells. As to conditions: VeroE6, no virus, CellTiter Blue. In general terms: The colour change of resazurin is a common sign of viable cells or microbes.
Data set [9] has as its system SARS-CoV-2. More on the design: method as in earlier work. The following applies: cited from earlier work.
Setting [10] is: Severe acute respiratory syndrome coronavirus 2, Vero C1008, 48 h, VeroE6, viral RNA by RT-qPCR, 2 days, read-out: EC50.
Where [11] appears, read: Severe acute respiratory syndrome coronavirus 2, Vero C1008, 48 h.
[12] abbreviates: Severe acute respiratory syndrome coronavirus 2, Vero C1008, 48 h, VeroE6, viral RNA by RT-qPCR, 2 days.
The mark [13] stands for this setting: VeroE6, viral RNA by RT-qPCR, 2 days, read-out: EC50.
The mark [14] stands for this setting: selectivity index CC50/EC50, VeroE6.
[15] abbreviates: Severe acute respiratory syndrome coronavirus 2, Vero C1008, 48 h, VeroE6, viral RNA by RT-qPCR, 2 days, read-out: EC90.
Where [16] appears, read: 10 µM compound, VeroE6, MOI 0.002, 3 days after infection, normalized cell viability relative to 10 µM arbidol.
[17] abbreviates: VeroE6, viral RNA by RT-qPCR, 2 days, read-out: EC90.

A word on the EC50: it is the concentration giving half of the maximal effect. As to `COc1ccccc1OCC(O)CN1CCN(CC(=O)Nc2c(C)cccc2C)CC1` (centres unmarked) [Ranolazine], the EC50 in data set [1] (setting [10]) is not below 40 µM.
As a reminder, the EC90 is the point of the concentration-response curve where the effect stands at 90%. As to `COc1ncnc(NS(=O)(=O)c2ccc(N)cc2)c1OC` [Sulfadoxine], the EC90 in data set [1] (setting [11]) is more than 40 µM. For the same compound, the values for the EC50 in data set [1] (setting [12]) and in data set [1] (setting [13]) were more than 30 µM and 35.4 µM, respectively. For the same compound, the SI in data set [1] (setting [14]) was more than 1.13. In addition, the “antiviral effect in Caco-2 cells (in words)” value (shortened to “antiviral effect … (in words)”) in [2] was “Arbidol-like result”. In addition, the CC50 at 2 days in [3] was more than 40 µM.
Turning to `CCCc1nc(C(C)(C)O)c(C(=O)O)n1Cc1ccc(-c2ccccc2-c2nnn[nH]2)cc1` [Olmesartan], in [1] (setting [10]), the EC50 is not below 40 µM. Besides, in data set [1], the “activity at 40 µM” value is listed as “lack of activity”.
By inhibition is commonly meant the change of the read-out against control, counted positive when it falls. Consider `CCC(CC)COC(=O)[C@H](C)N[P@](=O)(OC[C@H]1O[C@@](C#N)(c2ccc3c(N)ncnn23)[C@H](O)[C@@H]1O)Oc1ccccc1` [Remdesivir], for which, in [4], the inhibition at 5 µM came to 100% and the inhibition at 10 µM turned out to be 100%.
Take `O=C(CCCN1CCC2(CC1)C(=O)NCN2c1ccccc1)c1ccc(F)cc1` [Spiperone]: the EC90 in data set [1] (setting [15]) turned out to be 13.1 µM. In addition, the CC50 at 2 days in data set [3] is more than 40 µM.
As for `Nc1c2c(nc3ccccc13)CCCC2` [Tacrine hydrochloride], in [5] (setting [16]), the Inhibition index was determined as 1.44.
One may read the viability as the share of living cells, or the viability signal relative to a control. Regarding `CCOC(=O)c1c(CSc2ccccc2)n(C)c2cc(Br)c(O)c(CN(C)C)c12` [Arbidol], the EC50 in [1] (setting [10]) amounted to 10.7 µM. The EC90 in data set [1] (setting [15]) stood at 15.2 µM. For the same compound, in data set [1] (setting [14]), the SI is reported as more than 3.7. Further, the “antiviral effect … (in words)” value in data set [2] is “weaker than the one observed in VeroE6”. Besides, in data set [6], the CC50 was more than 40 µM. The viability at 10 µM in [7] lay in the range of 70 to 90%.
On to `CC(=O)[C@H]1CC[C@H]2[C@@H]3CC=C4C[C@@H](O)CC[C@]4(C)[C@H]3CC[C@]12C` [Pregnenolone], for which the Inhibition index in data set [5] (setting [16]) is 1.66.
As to `C[C@]12CC[C@H](O)C[C@@H]1CC[C@@H]1[C@@H]2CC[C@]2(C)C(=O)CC[C@@H]12` [Epiandrosterone], in data set [5] (setting [16]), the Inhibition index was found to be 1.07.
Consider `CCCCC[C@H](O)/C=C/[C@H]1[C@H](O)CC(=O)[C@@H]1CCCCCCC(=O)O` [Alprostadil], for which, in data set [1] (setting [11]), the EC90 was more than 40 µM. In [1] (setting [12]), this compound came in with an EC50 of 5.39 µM. The SI in data set [1] (setting [14]) is more than 7.4. Moreover, the CC50 at 2 days in data set [3] (VeroE6 cells (no virus)) is more than 40 µM.
Take `Cn1nnnc1SCC1=C(C(=O)O)N2C(=O)[C@@H](NC(=O)[C@H](O)c3ccccc3)[C@H]2SC1` [Cefamandole]: the EC50 in data set [1] (setting [10]) was not below 40 µM.
As to `CCOc1nc2cccc(C(=O)O)c2n1Cc1ccc(-c2ccccc2-c2nnn[nH]2)cc1` [Candesartan], in data set [1], the “activity at 40 µM” value is “lack of activity”.
In the case of `CN1CCN2c3ncccc3Cc3ccccc3C2C1` (centres unmarked) [Mirtazapine], the Inhibition index in [5] (setting [16]) stood at 1.03.
In data set [1] (setting [11]), `C[C@@H]1CCO[C@H]2Cn3cc(C(=O)NCc4ccc(F)cc4F)c(=O)c(O)c3C(=O)N12` [Dolutegravir] had an EC90 of more than 40 µM. In addition, the EC50 in [1] (setting [10]) was found to be 22 µM. In addition, in data set [1] (setting [14]), the SI is listed as more than 1.8. The same compound had a CC50 at 2 days in data set [3] (VeroE6 cells (no virus)) of more than 40 µM.
Take `CCCCOc1cc(C(=O)OCCN(CC)CC)ccc1N` [Benoxinate hydrochloride]: the Inhibition index in data set [5] (setting [16]) is given as 1.19.
As for `CC(C)CN(C[C@@H](O)[C@H](Cc1ccccc1)NC(=O)O[C@H]1CO[C@H]2OCC[C@H]21)S(=O)(=O)c1ccc(N)cc1` [Darunavir], the EC50 in data set [1] (setting [10]) is not below 40 µM.
Compound `O=C([O-])c1ccccc1-c1c2cc(Br)c(=O)cc-2oc2[c]([Hg+])c([O-])c(Br)cc12.[Na+].[Na+].[OH-]` [Merbromin disodium salt] registered an Inhibition index in [5] of 1.12.
For the compound `Cl.Clc1ccc(Cn2c(CN3CCCC3)nc3ccccc32)cc1` [Clemizole hydrochloride], in [1] (setting [13]), the EC50 was determined as 23.9 µM. Also, the EC90 in data set [1] (setting [17]) came to 38.2 µM. In [1] (setting [14]), this compound returned an SI of more than 1.7. In data set [5] (setting [16]), this compound returned an Inhibition index of 1.01. Also, the CC50 in data set [8] is more than 40 µM.
Take `C=C[C@H]1C[N@@]2CC[C@H]1C[C@@H]2[C@@H](O)c1ccnc2ccc(OC)cc12` [Quinidine hydrochloride]: the SI in data set [1] is recorded as more than 7.8. In addition, the EC50 in data set [1] (setting [10]) was 5.11 µM. Besides, the EC90 in [1] (setting [15]) is more than 40 µM. Also, in data set [3] (VeroE6 cells (no virus)), the CC50 at 2 days was more than 40 µM.
For the compound `CCCCOc1ccc(C(=O)CCN2CCCCC2)cc1` [Dyclonine hydrochloride], the EC50 in [1] (setting [10]) is 10 µM. In data set [1] (setting [15]), the EC90 is more than 40 µM. In [1] (setting [14]), this compound yielded an SI of more than 4. Besides, the “antiviral effect … (in words)” value in [2] is on record as “Arbidol-like result”. Moreover, the CC50 at 2 days in data set [3] (VeroE6 cells (no virus)) was more than 40 µM.
Consider `C=CCOc1ccccc1OCC(O)CNC(C)C` (centres unmarked) [Oxprenolol hydrochloride], for which the EC50 in data set [1] (setting [10]) came to 20.2 µM. The EC90 in [1] (setting [15]) is more than 40 µM. In [1] (setting [14]), this compound showed an SI of more than 2. Moreover, in data set [3] (VeroE6 cells (no virus)), the CC50 at 2 days was more than 40 µM.
Take `OCCN1CCN(CCCN2c3ccccc3C=Cc3ccccc32)CC1` [Opipramol dihydrochloride]: the EC50 in data set [1] (setting [10]) turned out to be 5.05 µM. Further, in data set [1] (setting [15]), the EC90 was determined as 5.97 µM. The compound further displayed an SI in data set [1] (setting [14]) of more than 7.9. This compound showed an Inhibition index in data set [5] (setting [16]) of 1.05. Also, the CC50 at 2 days in data set [3] (VeroE6 cells (no virus)) was more than 40 µM.
On to `COC(c1ccccc1)(c1ccccc1)[C@H](Oc1nc(C)cc(C)n1)C(=O)O` [Ambrisentan], for which, in data set [1] (setting [10]), the EC50 is not below 40 µM. In addition, the “activity at 40 µM” value in [1] is recorded as “lack of activity”.
For `COc1ccc2[nH]c([S+]([O-])Cc3ncc(C)c(OC)c3C)nc2c1` (centres unmarked) [Omeprazole], the EC50 in data set [1] (setting [10]) turned out to be 17.1 µM. Besides, the EC90 in data set [1] (setting [15]) came out at 38 µM. The CC50 at 2 days in [3] (VeroE6 cells (no virus)) was more than 40 µM.
In data set [1] (setting [11]), `CNCc1cc(-c2ccccc2F)n(S(=O)(=O)c2cccnc2)c1` [Vonoprazan] registered an EC90 of more than 40 µM. Also, the EC50 in data set [1] (setting [12]) is more than 30 µM; in data set [1] (setting [13]), 38.6 µM. In data set [1] (setting [14]), the SI is recorded as more than 1. In [3], this compound displayed a CC50 at 2 days of more than 40 µM.
With `CC[C@H]1OC(=O)[C@H](C)[C@@H](O[C@H]2C[C@@](C)(OC)[C@@H](O)[C@H](C)O2)[C@H](C)[C@@H](O[C@@H]2O[C@H](C)C[C@H](N(C)C)[C@H]2O)[C@](C)(O)C[C@@H](C)CN(C)[C@H](C)[C@@H](O)[C@]1(C)O` [Azithromycine], the EC50 in data set [1] (setting [10]) worked out at 2.12 µM. Besides, the EC90 in data set [1] (setting [15]) was found to be 8.65 µM. Moreover, the SI in data set [1] (setting [14]) is more than 19. The “antiviral effect in a macaque model” value in [9] is “no antiviral effect”. Also, in [3] (VeroE6 cells (no virus)), the CC50 at 2 days is more than 40 µM.
As to `CCN(CC)CCCC(C)Nc1ccnc2cc(Cl)ccc12` (centres unmarked) [Chloroquine diphosphate], in [5] (setting [16]), the Inhibition index is 1.35.
Take `CCN(CCO)CCCC(C)Nc1ccnc2cc(Cl)ccc12` (centres unmarked) [Hydroxychloroquine sulfate]: in data set [1] (setting [10]), the EC50 worked out at 4.17 µM. In addition, in data set [1] (setting [15]), the EC90 amounted to 25.5 µM. The “antiviral effect in a macaque model” value in [9] is reported as “no antiviral effect”. The same compound displayed a CC50 at 2 days in [3] of more than 40 µM.
Take `CC(C)(C)NC[C@H](O)c1ccc(O)c(CO)c1` [Levalbuterol]: the EC50 in [1] (setting [10]) is not below 40 µM.
For the compound `COc1ccc(CC(C)NCC(O)c2ccc(O)c(NC=O)c2)cc1` (centres unmarked) [Formoterole], the EC50 in data set [1] (setting [13]) was not below 40 µM.
Spiramycin registered an SI in data set [1] of more than 5. The EC50 in [1] (setting [13]) was 7.95 µM. Moreover, the EC90 in [1] (setting [17]) stood at 10.5 µM. The compound also gave a CC50 in data set [8] of more than 40 µM.
In the case of `CNCC(O)c1ccc(OC(=O)C(C)(C)C)c(OC(=O)C(C)(C)C)c1` (centres unmarked) [Dipivefrin hydrochloride], the Inhibition index in [5] (setting [16]) is on record as 1.01.
`C=C1C[C@@H]2[C@H](CC[C@]3(C)C(=O)CC[C@@H]23)[C@@]2(C)C=CC(=O)C=C12` [Exemestane] came in with an EC90 in data set [1] (setting [11]) of 9.86 µM. The compound also displayed an EC50 in data set [1] (setting [12]) of 7.51 µM. Also, the Inhibition index in data set [5] (setting [16]) is listed as 1.10. In data set [2], the “antiviral effect … (in words)” value is listed as “Arbidol-like result”. For the same compound, in data set [3], the CC50 at 2 days is more than 40 µM.
In the case of `CN(C)CCCN1c2ccccc2Sc2ccccc21` [Promazine hydrochloride], the Inhibition index in data set [5] (setting [16]) came out at 1.16.
